“Also recorded” adds a separate entry of the source.

Data on 1 compound can be found in patent US7060872B1, “Method for producing plants having modified canopy size or seedless fruit” (The State of Israel-Ministry of Agriculture & Rural …, priority 1998, dated 2006).

The test system of the assay is transgenic tomato plants expressing the sps streptavidin construct. Nature of the assay: External biotin application to sps transgenic tomato plants (reversal of degeneration). The class given is in vivo. The source says: The morphology and development of leaves of 6 weeks old plants obtained from non transgenic plant and transgenic tomato plants expressing the sps streptavidin construct and treated daily with biotin were also examined. FIG. 7 depicts the results of this study. […] This degeneration was to a lesser degree in the treated plants. Non transgenic plants both biotin treated and untreated appeared normal.
All of the plants treated with biotin remained green and vital throughout their development.

Take `O=C(O)CCCC[C@@H]1SC[C@@H]2NC(=O)N[C@@H]21` [biotin]: for the setting “2 μM biotin, daily spray”, the “effect of daily biotin spraying after the initial chlorotic symptoms, on leaves” value was “development of normal leaves” and the “effect of daily biotin spraying after the initial necrotic lesion” value was “stopped or prevented further development of degenerative symptoms”. For the same compound, the “effect of daily biotin spraying after the initial flower buds, on fruit and seed” value (2 μM biotin, daily spray, plants with seedless fruit) was “development of normal fruit and the restoration of normal seed development”. Besides, for the setting “6 mg/liter biotin”, the “effect of spraying biotin on the affected area” value was “stopped the degeneration process and plants' growth was restored”. Besides, the “effect of biotin application to T0 plants on germination of their seeds” value (seeds otherwise non-germinating (FIG. 6)) is “restored the germination; also recorded: normal germination”. For the same compound, the “effect of biotin solution on leaf development of a degenerated T0 plant” value (seen 10 or 20 days after application (FIG. 5)) was “restored normal leaf development”. The “tissue degeneration after a single biotin treatment” value (treated once after 3 weeks, 6 weeks old plants, versus untreated transgenic plants (FIG. 7)) was “lesser degree”.
